Assay results from patent US8871738B2, “Fused bicyclic oxazolidinone CETP inhibitor” (Merck Sharp & Dohme Corp., priority 2011, dated 2014).
pIC50: −log10 of the molar value. Read-outs that look alike come from different tables or passages of the source.

Target: endogenous CETP from serum (Homo sapiens (Human), UniProt P11597)
Assay: RTA assay in 95% human serum (CETP-catalyzed CE and TG transfer, endogenous CETP)
Format: biochemical
[1] = RTA assay in 95% human serum, read-out: IC50
[2] = RTA assay, 95% human serum, read-out: RTA (95% HS)

Sequence of endogenous CETP from serum (P11597 18-493 limits assumed): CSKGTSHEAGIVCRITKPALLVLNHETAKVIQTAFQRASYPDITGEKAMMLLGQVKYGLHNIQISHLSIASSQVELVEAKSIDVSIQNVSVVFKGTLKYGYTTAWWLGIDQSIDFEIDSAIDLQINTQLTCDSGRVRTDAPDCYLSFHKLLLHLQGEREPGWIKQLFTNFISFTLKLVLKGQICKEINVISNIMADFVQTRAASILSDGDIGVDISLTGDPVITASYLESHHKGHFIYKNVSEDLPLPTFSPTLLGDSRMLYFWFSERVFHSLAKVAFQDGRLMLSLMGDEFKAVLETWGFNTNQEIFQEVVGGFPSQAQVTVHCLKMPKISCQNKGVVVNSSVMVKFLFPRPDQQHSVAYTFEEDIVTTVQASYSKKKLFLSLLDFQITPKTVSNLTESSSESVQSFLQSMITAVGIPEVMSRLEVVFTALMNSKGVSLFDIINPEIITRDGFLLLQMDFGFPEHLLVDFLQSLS

Row | SMILES | pIC50 [1] | pIC50 [2]
1 | O=C1O[C@H](c2cc(C(F)(F)F)cc(C(F)(F)F)c2)[C@@H]2CC[C@@H](c3cc(C(F)(F)F)ccc3-c3ccsc3)N12 [Example 18, (1R,5S,7aS)-1-[3,5-bis(trifluoromethyl)phenyl]-5-[2-thiophen-3-yl-5-(trifluoromethyl)phenyl]tetrahydro-1H-pyrrolo[1,2-c][1,3]oxazol-3-one] | 6.99 | 
2 | COc1ncc(-c2c(C)cc(C(=O)O)cc2C)cc1-c1ncc(C(F)(F)F)cc1[C@@H]1CC[C@H]2[C@@H](c3cc(C(F)(F)F)cc(C(F)(F)F)c3)OC(=O)N12 [Example 70, 4-[3-{(1R,5S,7aS)-1-[3,5-bis(trifluoromethyl)phenyl]-3-oxotetrahydro-1H-pyrrolo[1,2-c][1,3]oxazol-5-yl}-2′-methoxy-5-(trifluoromethyl)-2,3′-bipyridin-5′-yl]-3,5-dimethylbenzoic acid] | 6.12 | 
3 | COc1ccc(CCc2n[nH]c(=O)o2)cc1-c1ccc(C(F)(F)F)cc1[C@@H]1CCC[C@H]2[C@@H](c3cc(C(F)(F)F)cc(C(F)(F)F)c3)OC(=O)N12 [Example 80, (1R,5S,8aS)-1-[3,5-bis(trifluoromethyl)phenyl]-5-{2′-methoxy-5′-[2-(5-oxo-4,5-dihydro-1,3,4-oxadiazol-2-yl)ethyl]-4-(trifluoromethyl)biphenyl-2-yl}hexahydro[1,3]oxazolo[3,4-a]pyridin-3-one] |  | 6.03
4 | COc1cc(F)c(C(C)C)cc1-c1cnc(N(C)C)cc1[C@@H]1C=C[C@H]2[C@@H](c3cc(C(F)(F)F)cc(C(F)(F)F)c3)OC(=O)N12 [Example 49, (1R,5S,7aS)-1-[3,5-bis(trifluoromethyl)phenyl]-5-{2-(dimethylamino)-5-[4-fluoro-2-methoxy-5-(1-methylethyl)phenyl]pyridin-4-yl}-5,7a-dihydro-1H-pyrrolo[1,2-c][1,3]oxazol-3-one] | 6.36 | 
5 | O=C1O[C@H](c2cc(C(F)(F)F)cc(C(F)(F)F)c2)[C@@H]2CC[C@@H](c3cc(C(F)(F)F)ccc3C3=CCCCC3)N12 [Example 17, (1R,5S,7aS)-1-[3,5-bis(trifluoromethyl)phenyl]-5-[2-cyclohex-1-en-1-yl-5-(trifluoromethyl)phenyl]tetrahydro-1H-pyrrolo[1,2-c][1,3]oxazol-3-one] | 7.13 | 
6 | COc1cc(F)c(-c2ccc(C(=O)O)cc2C)cc1-c1cnc(C(F)(F)F)cc1[C@@H]1CC[C@H]2[C@@H](c3cc(C(F)(F)F)cc(C(F)(F)F)c3)OC(=O)N12 [Example 53, 5′-[4-{(1R,5S,7aS)-1-[3,5-bis(trifluoromethyl)phenyl]-3-oxotetrahydro-1H-pyrrolo[1,2-c][1,3]oxazol-5-yl}-6-(trifluoromethyl)pyridin-3-yl]-2′-fluoro-4′-methoxy-2-methylbiphenyl-4-carboxylic acid] | 6.72 | 
7 | COc1ccc([C@H]2[C@H](C)NC(=O)[C@@H]2C)cc1-c1ccc(C(F)(F)F)cc1[C@@H]1CC[C@H]2[C@@H](c3cc(C(F)(F)F)cc(C(F)(F)F)c3)OC(=O)N12 [Example 4, (1R,5S,7aS)-1-(3,5-bis(trifluoromethyl)phenyl)-5-(5′-((2S,3S,4R)-2,4-dimethyl-5-oxopyrrolidin-3-yl)-2′-methoxy-4-(trifluoromethyl)-[1,1′-biphenyl]-2-yl)tetrahydropyrrolo[1,2-c]oxazol-3(1H)one] |  | 6.40
8 | COc1ccc(-c2ccc(C(=O)O)cc2C)cc1-c1ccc(N(C)C)nc1[C@@H]1C=C[C@H]2[C@@H](c3cc(C(F)(F)F)cc(C(F)(F)F)c3)OC(=O)N12 [Example 47, 3′-[2-{(1R,5S,7aS)-1-[3,5-bis(trifluoromethyl)phenyl]-3-oxo-5,7a-dihydro-1H-pyrrolo[1,2-c][1,3]oxazol-5-yl}-6-(dimethylamino)pyridin-3-yl]-4′-methoxy-2-methylbiphenyl-4-carboxylic acid] | 6.31 | 
9 | O=C1O[C@H](c2cc(C(F)(F)F)cc(C(F)(F)F)c2)[C@@H]2CC[C@@H](c3cc(C(F)(F)F)ccc3-c3ccccc3Cl)N12 [Example 15, (1R,5S,7aS)-1-[3,5-bis(trifluoromethyl)phenyl]-5-[2′-chloro-4-(trifluoromethyl)biphenyl-2-yl]tetrahydro-1H-pyrrolo[1,2-c][1,3]oxazol-3-one] | 6.34 | 
10 | COc1cc(F)c(CCC(=O)O)cc1-c1ccc(C(F)(F)F)cc1[C@@H]1CCC[C@H]2[C@@H](c3cc(C(F)(F)F)cc(C(F)(F)F)c3)OC(=O)N12 [Example 46, 3-[2′-{(1R,5S,8aS)-1-[3,5-bis(trifluoromethyl)phenyl]-3-oxohexahydro[1,3]oxazolo[3,4-a]pyridin-5-yl}-4-fluoro-6-methoxy-4′-(trifluoromethyl)biphenyl-3-yl]propanoic acid] | 5.79 | 
11 | COc1ccc([C@@H]2C[C@@H](O)[C@@H](O)C2)cc1-c1ccc(C(F)(F)F)cc1[C@@H]1CC[C@H]2[C@@H](c3cc(C(F)(F)F)cc(C(F)(F)F)c3)OC(=O)N12 [Example 58, (1R,5S,7aS)-1-[3,5-bis(trifluoromethyl)phenyl]-5-{5′-[(1s,3R,4S)-3,4-dihydroxycyclopentyl]-2′-methoxy-4-(trifluoromethyl)biphenyl-2-yl}tetrahydro-1H-pyrrolo[1,2-c][1,3]oxazol-3-one] | 6.38 | 
12 | COc1ccc([C@@H]2CC(=O)N[C@H]2C)cc1-c1ccc(C(F)(F)F)cc1[C@@H]1CC[C@H]2[C@@H](c3cc(C(F)(F)F)cc(C(F)(F)F)c3)OC(=O)N12 [Example 76, (1R,5S,7aS)-1-[3,5-bis(trifluoromethyl)phenyl]-5-{2′-methoxy-5′-[(2S,3S)-2-methyl-5-oxopyrrolidin-3-yl]-4-(trifluoromethyl)biphenyl-2-yl}tetrahydro-1H-pyrrolo[1,2-c][1,3]oxazol-3-one] | 6.33 | 
13 | COc1ncccc1-c1ccc(C(F)(F)F)cc1[C@@H]1CC[C@H]2[C@@H](c3cc(C(F)(F)F)cc(C(F)(F)F)c3)OC(=O)N12 [Example 21, (1R,5S,7aS)-1-[3,5-bis(trifluoromethyl)phenyl]-5-[2-(2-methoxypyridin-3-yl)-5-(trifluoromethyl)phenyl]tetrahydro-1H-pyrrolo[1,2-c][1,3]oxazol-3-one] | 6.50 | 
14 | COc1ccc(-c2ccc(C(=O)O)cc2C)cc1-c1ncc(C(F)(F)F)cc1[C@@H]1C=C[C@H]2[C@@H](c3cc(C(F)(F)F)cc(C(F)(F)F)c3)OC(=O)N12 [Example 68, 3′-(3-((1R,5S,7aS)-1-(3,5-bis(trifluuoromethyl)phenyl)-3-oxo-1,3,5,7a-tetrahydropyrrolo[1,2-c]oxazol-5-yl)-5-(trifluoromethyl)pyridin-2-yl)-4′-methoxy-2-methyl-[1,1′-biphenyl]-4-carboxylic acid] | 6.37 | 
15 | COc1ncc(-c2ccc(C(=O)O)cc2C)cc1-c1ccc(C(F)(F)F)cc1[C@@H]1CC[C@H]2[C@@H](c3cc(C)cc(C(F)(F)F)c3)OC(=O)N12 [Example 55, 4-{6-methoxy-5-[2-{(1R,5S,7aS)-1-[3-methyl-5-(trifluoromethyl)phenyl]-3-oxotetrahydro-1H-pyrrolo[1,2-c][1,3]oxazol-5-yl}-4-(trifluoromethyl)phenyl]pyridin-3-yl}-3-methylbenzoic acid] | 7.07 | 
16 | COc1ncc(-c2ccc(C(=O)O)cc2C)cc1-c1ccc(C(F)(F)F)cc1[C@@H]1C=C[C@H]2[C@@H](c3cc(C(F)(F)F)cc(C(F)(F)F)c3)OC(=O)N12 [Example 67, 4-(5-(2-((1R,5S,7aS)-1-(3,5-bis(trifluoromethyl)phenyl)-3-oxo-1,3,5,7a-tetrahydropyrrolo[1,2-c]oxazol-5-yl)-4-(trifluoromethyl)phenyl)-6-methoxypyridin-3-yl)-3-methylbenzoic acid] | 6.70 | 
17 | COc1cc(F)c(-c2ccc(C(=O)O)cc2C)cc1-c1ccc(C(F)(F)F)cc1[C@@H]1CCC[C@H]2[C@@H](c3cc(C(F)(F)F)cc(C(F)(F)F)c3)OC(=O)N12 [Example 44, 2″-{(1R,5S,8aS)-1-[3,5-bis(trifluoromethyl)phenyl]-3-oxohexahydro[1,3]oxazolo[3,4-a]pyridin-5-yl}-6′-fluoro-4′-methoxy-2-methyl-4″- (trifluoromethyl)-1,1′:3′,1″- terphenyl-4-carboxylic acid] | 6.14 | 
18 | COc1cc(F)c(-c2ccc(C(=O)O)cc2C)cc1-c1ccc(C(F)(F)F)cc1[C@@H]1C=C[C@H]2[C@@H](c3cc(C(F)(F)F)cc(C(F)(F)F)c3)OC(=O)N12 [Example 50, 2″-{(1R,5S,7aS)-1-[3,5-bis(trifluoromethyl)phenyl]-3-oxo-5,7a-dihydro-1H-pyrrolo[1,2-c][1,3]oxazol-5-yl}-6′-fluoro-4′-methoxy-2-methyl-4″- (trifluoromethyl)-1,1′:3′,1″- terphenyl-4-carboxylic acid] | 7.32 | 
19 | COc1ccc(C2CCC(C(=O)O)CC2)cc1-c1ccc(C(F)(F)F)cc1[C@@H]1CC[C@H]2[C@@H](c3cc(C)cc(C(F)(F)F)c3)OC(=O)N12 (stereo partly drawn) [Example 52, 4-[6-methoxy-2′-{(1R,5S,7aS)-1-[3-methyl-5-(trifluoromethyl)phenyl]-3-oxotetrahydro-1H-pyrrolo[1,2-c][1,3]oxazol-5-yl}-4′-(trifluoromethyl)biphenyl-3-yl]cyclohexanecarboxylic acid] | 6.59 | 
20 | O=C1O[C@H](c2cc(C(F)(F)F)cc(C(F)(F)F)c2)[C@@H]2CC[C@@H](c3cc(C(F)(F)F)ccc3C3=CCCC3)N12 [Example 22, (1R,5S,7aS)-1-[3,5-bis(trifluoromethyl)phenyl]-5-[2-cyclopent-1-en-1-yl-5-(trifluoromethyl)phenyl]tetrahydro-1H-pyrrolo[1,2-c][1,3]oxazol-3-one] | 7.25 | 
21 | COc1ncc(-c2c(C)cc(C(=O)O)cc2C)cc1-c1ccc(C(F)(F)F)cc1[C@@H]1CC[C@H]2[C@@H](c3cc(C(F)(F)F)cc(C(F)(F)F)c3)OC(=O)N12 [Example 56, 4-{5-[2-{(1R,5S,7aS)-1-[3,5-bis(trifluoromethyl)phenyl]-3-oxotetrahydro-1H-pyrrolo[1,2-c][1,3]oxazol-5-yl}-4-(trifluoromethyl)phenyl]-6-methoxypyridin-3-yl}-3,5-dimethylbenzoic acid] | 7.33 | 
